In patent US20220088199A1, “METHOD FOR PROTECTING GLYCEROL ALKYL ETHERS FROM OXIDATION” (SACHEM, INC., priority 2016, published 2022):

Columns and labels:
[1] = Stability testing of SASKINE50 blends at 50° C., analysed by GC (Example 2); details: for loss of SASKINE50 (3-[(2-ethylhexyl)oxy]-1,2-propanediol) assay on storage: one month, 725 ppm antioxidant in 99.6% pure SASKINE50, FIG. 3
Procedure: The blend is analyzed via gas chromatography (GC) prior to stability testing. Following the analysis result, the blend is placed under atmospheric pressure and under an inert gas into individual sample bottles as not to disturb the testing conditions during sampling. The test conditions are 50° C. for one month. […] These test conditions are considered to simulate a shelf-life of approximately one year at room temperature.
The samples are dissolved in isopropyl alcohol at a concentration of 10% for the GC analysis. The following GC conditions are used:
Column: • Material: fused silica WCOT • Length: 30 m • Internal diameter: 0.32 mm • Stationary phase: DB1701 • Film thickness: 1 μm • Gas regulation: Carrier gas: hydrogen • Make-up gas: helium • Temperatures: Detector: 300° C. • Injector: 275° C. • Start temperature: 115° C. • Warm up speed 1: 8° C./minute • End temperature: 210° C. • Warm up speed 2: 15° C./minute • End temperature: 275° C.
Detection: Type detector: FID

[2] = Stability testing of SASKINE80 blend at 50° C., analysed by GC (Example 3); type: physicochemical
Procedure: In this example, SACHEM's SASKINE80™ is used as basis for the stability testing of […] within the scope of the present invention, i.e., naringenin. A pre-defined blend containing SASKINE80™ and this anti-oxidant compound in accordance with the present invention are prepared, the blend containing 725 ppm of the naringenin in 99.6% pure SASKINE80™ (3-[(n-octyl)oxy]-1,2-propanediol). […] The test conditions are 50° C. for two weeks and four weeks.

[3] = system: microbial strain (bacteria, yeasts, molds); assay: Minimum inhibitory concentration (MIC) determination; type: cell-based; details: FIG. 7; compared to plain material and Sensiva
Procedure: As discussed in the background, the purpose of the glyceryl ether compounds such as SASKINE50™ and SASKINE80™ is as a preservative and antimicrobial, especially in cosmetics and pharmaceutical preparations. To test the SASKINE50™ and SASKINE80™, minimum inhibitory concentrations are determined for SASKINE50™ alone, SASKINE50™ with naringenin, SASKINE80™ alone, and SASKINE80™ with naringenin, and, for comparison, Sensiva® SC 50, which contains 3-[(2-ethylhexyl)oxy]-1,2-propanediol and synthetic alpha-tocopherol, which is commercially available from Schülke & Mayr Benelux B.V., 2032 HA-Haarlem, Netherlands. The determination of the minimal inhibitory concentration (MIC) is carried out according to the standard procedure described below.
The purpose of the MIC study is to find a minimum concentration of the test item which will enable to inhibit in vitro the growth of a microbial strain. The MIC characterizes the bacteriostatic or fungistatic effect of a product.
In the MIC test, the product is diluted according to a geometric progression of reason 2 over a range of at least 5 dilutions starting from the maximum concentration to be tested specified by the customer. In each tube of the dilution range, a cultured medium double concentered is included with the strains to be tested. […]

[4] = system: human reconstructed epidermis (SkinEthic model); assay: In vitro skin irritation study, SkinEthic model, OECD 439; type: cell-based; details: pure product applied 42 minutes, 42 hours incubation; MTT viability and IL1-α; FIG. 8
Procedure: As noted herein, the inventive compositions are intended for use in cosmetic and pharmaceutical compositions. One important criteria for such products is that there be no skin irritation, when the compositions are applied to the skin of the person using the cosmetic or pharmaceutical composition. To test the compositions of the present invention, a non-animal test is conducted, which is an in vitro skin irritation study of the compositions on human reconstructed epidermis known as the SkinEthic model, OECD 439. […] After the pure product has been applied to the epidermis for 42 minutes and they have been incubated for 42 hours post-treatment, cell viability is determined by measuring mitochondrial succinate dehydrogenase activity in living cells. […] A spectrophotometer is used to read the results after the crystals have been dissolved. The measured absorbances are proportional to the number of living cells. In addition, release of inflammation (IL1-α) mediators is measured by colorimeter if cell viability is over 50%. […] Cytotoxicity: absorbance is measured three times at 540 nm. The results are expressed as a viability percentage compared to a negative control: […]
IL1-α titration: IL1-α concentrations in the culture media are evaluated using the instructions on the titration kit and are expressed as pg/ml. […]

[5] = Stability testing at room temperature: formation of formaldehyde and peroxides (Example 1); type: physicochemical; details: zero time
Source text: The thus-prepared compositions are subjected to stability testing, under which formation of formaldehyde and peroxides and determined as indicators of stability, in which higher amounts of formaldehyde and/or peroxides are deemed to show lower stability of the mixture. […] This sample is obtained commercially from Schulke GmbH. The tests for all samples determine the formaldehyde and peroxide contents of the test sample when stored at room temperature (RT), for periods of 0, 2, 4, 6, 8, 10 and 12 months. The 0 month sample is the freshly prepared composition.

Compound	loss of SASKINE50 (3-[(2-ethylhexyl)oxy]-1,2-propanediol) assay on storage [1]	further results
O=c1c(O)c(-c2ccc(O)c(O)c2)oc2cc(O)cc(O)c12 [quercetin]	almost no loss	–
COc1ccc(-c2cc(=O)c3c(O)cc(O)cc3o2)cc1O [diosmetin]	almost no loss	–
CCCCCCCCOCC(O)CO (centres unmarked) [SASKINE80™, 3-[(n-octyl)oxy]-1,2-propanediol]	–	increase in low boiling compounds ([2]; two and four weeks, FIG. 5b): notable increase; SASKINE80 assay decrease ([2]; two weeks and four weeks, FIG. 5a): about 0.40%; minimum inhibitory concentration (anti-microbial growth) [3]: even better performance
CCCCC(CC)COCC(O)CO (centres unmarked) [SASKINE50™, 3-[(2-ethylhexyl)oxy]-1,2-propanediol]	significant loss	skin irritation classification [4]: irritant of category 1 or 2; peroxide present ([5]; Example 1, FIG. 1): measurable, non-zero amount; formaldehyde present ([5]; Example 1, FIG. 2): measurable, non-zero amount; increase in volatile degradation products (low boiling compounds) ([1]; 2 weeks and 4 weeks, 725 ppm antioxidant in SASKINE50, FIG. 4): significant amount of breakdown products
O.O=c1c(O)c(-c2ccc(O)cc2O)oc2cc(O)cc(O)c12 [norinhydrate]	almost no loss	–
O=C1C[C@@H](c2ccc(O)cc2)Oc2cc(O)cc(O)c21 [naringenin]	almost no loss	–
C[C@@H]1O[C@@H](O[C@H]2[C@H](Oc3cc(O)c4c(c3)O[C@H](c3ccc(O)cc3)CC4=O)O[C@H](CO)[C@@H](O)[C@@H]2O)[C@H](O)[C@H](O)[C@H]1O [naringin hydrate]	performed less well	–
COc1cc(O)c2c(=O)c(O)c(-c3ccc(O)c(O)c3)oc2c1 [rhamnetin]	almost no loss	–
